Key:
[1] = system: Sprague-Dawley rats; assay: Two-trial novel object recognition in scopolamine treated rats; type: in vivo, rat; details: 0.3 mg/kg
Procedure: Ennaceur, A., and Delacour, J. (1988), Behav. Brain Res. 31:47-59. […] See, e.g., Scali, C., et al., (1994), Neurosci. Letts. […] 53:277-283.
Male Sprague-Dawley rats between six and seven weeks old, weighing between 220-300 grams are obtained from Centre d'Elevage (Rue Janvier, B. P. 55, Le Genest-Saint-Isle 53940, France). The animals are housed in groups of 2 to 4 in polypropylene cages (with a floor area of 1032 cm^2) under standard conditions: at RT (22±2° C.), under a 12 h light/12 h dark cycle, with food and water provided ad libitum.
The experimental arena is a square wooden box (60 cm×60 cm×40 cm) painted dark blue, with 15 cm×15 cm black squares under a clear plexiglass floor. The arena and objects placed inside the arena are cleaned with water between each trial to eliminate any odor trails left by rats. […]
Novel object recognition test is comprised of two trials separated by an interval of 120 min. or 24 hours. […] The time required for each animal to complete 15 seconds of object exploration is determined, with a cut-off time of four min. […] Rats are placed back in the arena for three min., and exploration of both objects is determined. Locomotor activity of rats (number of times rats cross grid lines visible under the clear plexiglass floor) is scored for during T1 and T2. […]
Recognition scores and % of good learners for compounds of the invention are determined.

[2] = system: Long-Evans rats; assay: 5-choice serial reaction time task (5CSRTT); type: in vivo, rat; details: 0.1, 0.3 and 1.0 mg/kg p.o.
Source text: Attention and impulsivity are characteristic of several disease states. The continuous performance test (CPT), used in humans, is capable of detecting attention deficts in a number of disorders, including attention deficit hyperactivity disorder, schizophrenia and mild cognitive impairment. The pre-clinical analogue of the CPT is the 5-choice serial reaction time task (5CSRTT). In this operant-based test, rats are required to be attentive and withhold responding while they monitor 5 apertures for the appearance of a brief stimulus light in one of the apertures. The brief illumination of the stimulus light in the 5CSRTT is analogous to the appearance of the “correct” letters in the CPT in humans. Upon observing the stimulus light, the rat must nose-poke in the corresponding aperture to receive a food reward. The 5CSRTT allows the measurement of similar behavioral responses as the CPT, including accuracy, speed of responding, impulsive and compulsive responding.
Thirteen male Long-Evans rats (275-300 g) were obtained from Harlan Laboratories, Indianapolis, Ind. At the time of testing for the current study, the rats were approximately 16-18 months old. Upon arrival, the rats were assigned unique identification numbers (tail marked). […]

## C/C(=C\n1c2c(c3cc(Cl)ccc31)CN(C)CC2)c1ccncc1 [Compound 90, (E)-8-chloro-2,3,4,5-tetrahydro-2-methyl-5-(2-(pyridin-4-yl)prop-1-enyl)-1H-pyrido[4,3-b]indole]
[1]
  activity in object recognition in the presence of scopolamine: activity
[2]
  impulsivity-like and perserverative-like behavior: reduces

— patent US8906925B2, “Pyrido[4,3-B]indoles containing rigid moieties” (Medivation Technologies, Inc., priority 2008, dated 2014)
